Legend:
UCP1 knockout mice = assay: Indirect calorimetry, heat production after i.p. injection in UCP1 knockout mice; type: in vivo, Mus musculus; conditions: 0.5 mg/kg i.p., 27° C., 60 minutes, p=0.482 (FIG. 6B, 6C)
Protocol: (§1) Indirect calorimetric measurements in mice were performed using an open flow respirometry system (Phenomaster, TSE Systems, Bad Homburg/Germany). All animals were kept at room temperature or cold-acclimated at 4° C. for 4 days as indicated in the results section. For the gas exchange measurement (O2 consumption and CO2 production) mice were placed individually in metabolic cages (type I, 3 liter volume) without food and water and transferred to a climate cabinet (TPK 600, Feutron, Greiz/Germany). The air was continuously pulled through the cages at a flow rate of 33 l/h. For gas analysis a subsample was dried in a cooling trap and analyzed for gas exchange. Mice in the cabinet were preconditioned to 30° C. and the basal metabolic rate (BMR) in the post-absorptive state was measured between 8:00 a.m.-12:00 p.m. The O2 consumption and CO2 production of each mouse was analyzed every 5 min over a period of 1 min. […] After injection the O2 consumption and CO2 production rate of each mouse was recorded for 45-60 min with high-resolution recordings at 10 sec intervals. […] Respiratory exchange ratios (RER) and heat production (HP) were calculated from the following formula: (RER=CO2 production/O2 consumption) and (HP[mW]=(4.44+1.43*respiratory exchange ratio)*oxygen consumption [ml/h]).

wildtype mice = assay: Indirect calorimetry, heat production after i.p. injection in wildtype mice; type: in vivo, Mus musculus; conditions: 0.5 mg/kg i.p., 27° C.
Protocol: as §1

primary brown adipocytes = assay: Microplate respirometry (oxygen consumption rate) in differentiated primary brown adipocytes of wildtype mice; type: cell-based, Mus musculus; conditions: for stimulation of UCP1-mediated thermogenesis (uncoupled respiration): SCT 10 nM, ISO 500 nM, N=5 (FIG. 10A)
Protocol: For culturing primary adipocytes male 129S1/SvImJ mice ([…] or UCP1-KO mice and wildtype littermates) at the age of 5-6 weeks were used for the dissection of inguinal and epidydimal white adipose tissue and interscapular brown adipose tissue depots. The tissue was carefully minced and treated with collagenase for 45 min at 37° C. The homogenate was filtered through a 250 μm nylon mesh and centrifuged at 500 g to collect the stromal vascular fraction (SVF). The SVF cell pellet was rinsed and seeded into XF96 V3-PS cell culture microplate (Seahorse Bioscience). After reaching confluency, induction medium containing 10% fetal bovine serum (FBS), 0.5 mM isobutylmethylxanthine, 125 nM indomethacin, 1 mM dexamethasone, 850 nM insulin and 1 nM T3 was added. After 2 days of induction, cells were maintained in differentiation media (10% FBS, 850 nM insulin and 1 nM T3). Medium was changed every two days. Respiration was measured on day 7 of differentiation. For determination of mRNA levels cells were stimulated at the 7th day of differentiation for 6 hours with secretin (rat, Tocris, Art Nr 1919) or isoproterenol (Sigma-Aldrich, Art Nr. 16504-100MG) and harvested subsequently. Oxygen consumption rate (OCR) was measured at 37° C. using a microplate respirometer (XF96 extracellular flux analyzer, Seahorse Bioscience). At day 7, the differentiation medium was replaced with prewarmed, unbuffered assay medium (DMEM basal medium supplemented with 25 mM glucose, 2 mM sodium pyruvate, 31 mM NaCl, 2 mM GlutaMax and 15 mg/l phenol red, pH 7.4) containing 2% of essentially fatty acid free bovine serum albumin (BSA), and incubated at 37° C. in a room air incubator for 1 h. Basal respiration was measured in untreated cells. Coupled respiration was inhibited by oligomycin treatment (5 μM). […] Maximum respiratory capacity was assessed after FCCP (Sigma-Aldrich) addition (1 μM). Finally, mitochondrial respiration was blocked by antimycin A (Sigma-Aldrich) (5 μM) treatment and the residual OCR was considered to be due to non-mitochondrial reactions. Oxygen consumption rates were calculated using the Seahorse XF-96 software. Data were exported and reconstructed in GraphPad Prism 4.0 software. For each condition the lowest OCR after antimycin A addition was subtracted from all other values. Respiration rates following oligomycin addition were defined as basal OCR. For induction of OCR by isoproterenol, secretin or FCCP the highest values measured after addition of the respective molecule was used. The “OCR in % of basal OCR” and “OCR in % of FCCP OCR” were calculated as follows: Method: To test whether SCT can activate thermogenesis in brown adipocytes, we measured UCP1-mediated uncoupled respiration in cultured adherent intact primary brown adipocytes, according to a protocol recently established in our lab (Li Y, Fromme T, Schweizer S, Schöttl T, Klingenspor M. EMBO Rep. 2014 October; 15(10):1069-76. doi: 10.15252/embr.201438775; […]. Meaningful respirometric measurements of UCP1-mediated thermogenesis. Biochimie. 2017 March; 134:56-61. doi: 10.1016/j.biochi.2016.12.005.). The cellular oxygen consumption rate (OCR) of primary adipocytes was determined using an XF96 Extracellular Flux Analyzer (Seahorse Bioscience). Briefly, primary adipocytes were cultured and differentiated in XF96 microplates. At day 7 of differentiation, cells were washed once with prewarmed, unbuffered assay medium (DMEM basal medium supplemented with 25 mM glucose, 31 mM NaCl, 2 mM GlutaMax and 15 mg/l phenol red, pH 7.4) (basal assay medium) and then the medium was replaced with basal assay medium containing 1-2% essentially fatty acid free bovine serum albumin (BSA), and incubated at 37° C. in a room air incubator for 1 h. The drug injections ports of the sensor cartridges were loaded with the assay reagents at 10× in basal assay medium (no BSA). All respiration assays were performed in the presence of bovine serum albumin to buffer free fatty acid levels in the respiration medium. […]

secretin
heat production and its AUC versus PBS (UCP1 knockout mice): no difference | AUC of heat production versus PBS (wildtype mice; 129/S6 wildtype mice, 45 minutes, basal subtracted, p=0.001 (FIG. 5B)): significant increase in the AUC | AUC of heat production versus PBS (wildtype mice; wildtype mice of 129/S1-UCP1 knockout strain, 60 minutes, p=0.002 (FIG. 6C)): higher AUC | increase of OCR above basal OCR (primary brown adipocytes; 0.5 μM, after oligomycin, day 7 of differentiation (FIG. 2B)): about 200% | uncoupled OCR as share of maximal uncoupled OCR induced by FCCP (primary brown adipocytes; 0.5 μM, day 7 of differentiation (FIG. 2C)): about 75% | induction of oxygen consumption in cells from wildtype control mice (primary brown adipocytes; 129/S1 background, FIG. 3): increase in oxygen consumption | stimulation of UCP1-mediated thermogenesis (uncoupled respiration) (primary brown adipocytes): activate UCP1-dependent thermogenesis | stimulation of UCP1-mediated thermogenesis (uncoupled respiration) (primary brown adipocytes; listed as SCT): as potent as ISO (500 nM) | dose dependence and potency of activation of uncoupled respiration (primary brown adipocytes; compared to isoproterenol, data not shown): dose-dependent with a higher potency at lower concentrations as compared to isoproterenol
